The IC50 is the midpoint of a concentration-inhibition curve.

The text below walks through data of US11780830B2, “Triazolone derivatives or salts thereof and pharmaceutical compositions comprising the same” (YUHAN CORPORATION, priority 2018, dated 2023).

Type in all cases: biochemical
The target in one assay is T1, recombinant human VAP-1 (Homo sapiens, UniProt Q16853).
T1 construct: purchased R&D systems
T1 sequence (Q16853 1-763): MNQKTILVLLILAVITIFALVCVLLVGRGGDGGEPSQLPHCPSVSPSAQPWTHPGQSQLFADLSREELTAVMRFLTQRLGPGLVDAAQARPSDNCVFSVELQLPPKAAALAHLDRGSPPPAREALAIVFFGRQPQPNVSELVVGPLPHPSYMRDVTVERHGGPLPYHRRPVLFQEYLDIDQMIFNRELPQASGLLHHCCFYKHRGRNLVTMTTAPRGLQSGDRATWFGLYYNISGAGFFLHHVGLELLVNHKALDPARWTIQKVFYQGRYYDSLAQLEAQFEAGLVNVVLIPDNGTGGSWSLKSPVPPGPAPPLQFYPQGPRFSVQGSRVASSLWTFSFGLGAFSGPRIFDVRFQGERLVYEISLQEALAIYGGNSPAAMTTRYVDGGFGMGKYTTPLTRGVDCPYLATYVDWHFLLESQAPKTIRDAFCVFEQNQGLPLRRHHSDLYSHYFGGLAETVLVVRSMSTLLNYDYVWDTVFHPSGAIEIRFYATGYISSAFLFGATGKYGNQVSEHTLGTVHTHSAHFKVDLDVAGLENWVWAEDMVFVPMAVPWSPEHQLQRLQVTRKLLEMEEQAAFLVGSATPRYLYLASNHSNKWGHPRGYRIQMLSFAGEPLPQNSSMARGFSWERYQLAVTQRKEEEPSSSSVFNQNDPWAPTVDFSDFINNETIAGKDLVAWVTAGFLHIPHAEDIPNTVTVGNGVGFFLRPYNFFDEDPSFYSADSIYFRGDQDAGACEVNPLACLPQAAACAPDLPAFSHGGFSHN
In words: Activity on recombinant human VAP-1, HRP-coupled Amplex Red hydrogen peroxide assay. As to conditions: substrate 1 mM benzylamine; compound incubated with enzyme at 37° C. for 30 minutes; pH 7.4; read-out: Inhibitory Activity (IC50, nM) human VAP-1. A digest of the protocol:
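H2O2 generation from 1 mM benzylamine was coupled via 1 U/mL HRP to 200 uM Amplex Red; inhibitors, serially diluted 1:3 over 8 points with under 1% final DMSO, had been preincubated 30 min at 37 °C. IC50 from percentage drop in rate.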

Assay [1] concerns the target T2, recombinant human MAO-A (monoamine oxidase-A) (Homo sapiens, UniProt P21397).
T2 construct: purchased Sigma-Aldrich
T2 sequence (P21397 1-527): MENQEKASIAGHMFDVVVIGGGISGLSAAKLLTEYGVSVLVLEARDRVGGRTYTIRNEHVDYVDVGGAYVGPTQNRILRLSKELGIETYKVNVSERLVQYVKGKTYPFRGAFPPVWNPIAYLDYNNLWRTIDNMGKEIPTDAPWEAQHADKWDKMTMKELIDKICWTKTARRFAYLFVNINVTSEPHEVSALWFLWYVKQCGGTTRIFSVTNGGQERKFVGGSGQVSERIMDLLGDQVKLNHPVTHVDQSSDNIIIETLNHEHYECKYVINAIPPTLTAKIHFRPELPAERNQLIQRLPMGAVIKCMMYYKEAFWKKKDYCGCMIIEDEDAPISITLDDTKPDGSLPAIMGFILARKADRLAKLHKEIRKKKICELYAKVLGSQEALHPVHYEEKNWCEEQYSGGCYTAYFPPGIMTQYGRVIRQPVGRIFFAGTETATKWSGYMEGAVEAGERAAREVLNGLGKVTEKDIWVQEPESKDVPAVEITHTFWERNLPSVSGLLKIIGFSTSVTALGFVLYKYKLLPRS
In words: Activity on recombinant human MAO-A, method similar to the VAP-1 assay. To be noted: substrate 0.5 mM tyramine; read-out: Inhibitory Activity (IC50, nM) MAO-A. A digest of the protocol: (§1)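 First, serially diluted compounds were incubated with recombinant enzyme in 50 mM sodium phosphate, pH 7.4, for 30 min at 37° C. Next, Amplex Red (200 uM), HRP (1 U/mL) and tyramine (0.5 mM, MAO-A) or benzylamine (1 mM, MAO-B) were added. Then fluorescence was monitored over 1-2 h and IC50 fitted.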

Assay [2] deals with T3, recombinant human MAO-B (monoamine oxidase-B) (Homo sapiens, UniProt P27338).
T3 construct: purchased Sigma-Aldrich
T3 sequence (P27338 1-520): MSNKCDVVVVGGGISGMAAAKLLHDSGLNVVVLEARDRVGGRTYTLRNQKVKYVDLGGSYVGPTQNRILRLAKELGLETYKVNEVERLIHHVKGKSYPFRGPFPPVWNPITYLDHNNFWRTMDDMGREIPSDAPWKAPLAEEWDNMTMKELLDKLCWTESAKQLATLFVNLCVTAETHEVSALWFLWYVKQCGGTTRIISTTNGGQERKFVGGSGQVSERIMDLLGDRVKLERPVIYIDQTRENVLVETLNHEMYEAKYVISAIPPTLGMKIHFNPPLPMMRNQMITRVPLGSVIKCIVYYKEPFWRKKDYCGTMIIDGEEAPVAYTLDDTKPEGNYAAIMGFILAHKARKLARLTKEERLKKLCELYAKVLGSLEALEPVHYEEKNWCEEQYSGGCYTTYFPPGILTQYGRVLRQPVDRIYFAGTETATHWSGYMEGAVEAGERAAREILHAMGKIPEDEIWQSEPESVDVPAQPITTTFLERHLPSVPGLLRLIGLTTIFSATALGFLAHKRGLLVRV
In words: Activity on recombinant human MAO-B, method similar to the VAP-1 assay. As to conditions: substrate 1 mM benzylamine; read-out: Inhibitory Activity (IC50, nM) MAO-B. A digest of the protocol:
as §1

Assay [3] addresses T4, recombinant human DAO (diamine oxidase) (Homo sapiens, UniProt P19801).
T4 construct: purchased R&D systems
T4 sequence (P19801 20-751): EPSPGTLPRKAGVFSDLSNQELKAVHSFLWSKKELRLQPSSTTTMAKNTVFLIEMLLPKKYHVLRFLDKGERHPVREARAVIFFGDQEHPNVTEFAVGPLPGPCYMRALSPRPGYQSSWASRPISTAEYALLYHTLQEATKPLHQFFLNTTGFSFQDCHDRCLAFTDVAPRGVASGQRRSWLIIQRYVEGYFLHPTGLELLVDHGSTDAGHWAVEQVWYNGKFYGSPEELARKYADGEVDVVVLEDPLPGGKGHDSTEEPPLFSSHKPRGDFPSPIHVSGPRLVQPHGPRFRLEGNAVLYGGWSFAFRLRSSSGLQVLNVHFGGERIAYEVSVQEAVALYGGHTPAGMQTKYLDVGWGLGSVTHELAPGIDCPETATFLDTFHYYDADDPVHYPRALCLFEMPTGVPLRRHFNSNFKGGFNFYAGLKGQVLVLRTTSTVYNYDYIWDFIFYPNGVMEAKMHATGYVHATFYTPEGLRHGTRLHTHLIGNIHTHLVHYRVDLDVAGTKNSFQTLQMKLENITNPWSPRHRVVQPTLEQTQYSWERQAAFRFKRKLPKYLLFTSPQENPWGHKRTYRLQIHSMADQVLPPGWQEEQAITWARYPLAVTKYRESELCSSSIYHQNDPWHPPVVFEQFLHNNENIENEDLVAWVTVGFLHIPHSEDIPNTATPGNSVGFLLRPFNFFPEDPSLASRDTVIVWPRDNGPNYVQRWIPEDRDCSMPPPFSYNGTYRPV
As to the kind of experiment: Activity on recombinant human DAO, method similar to the VAP-1 assay. To be noted: substrate 1 mM putrescine; read-out: Inhibitory Activity (IC50, nM) DAO. A digest of the protocol:
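Inhibition of recombinant human diamine oxidase (DAO, R&D systems) was assessed by the same approach as the VAP-1 assay, using 1 mM putrescine as substrate. Hydrogen peroxide formed was detected through an HRP-coupled Amplex Red reaction yielding fluorescent resorufin, read at 544 nm excitation and 590 nm emission. IC50 values came from four-parameter logistic fitting in GraphPad Prism.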

Counter-ions that a name gives are not always drawn.

`NC/C(=C\F)Cn1ncn(Cc2ccc(C#Cc3cnc4c(c3)NCCO4)s2)c1=O` [Example 135, 2-[(E)-2-(aminomethyl)-3-fluoro-allyl]-4-[[5-[2-(2,3-dihydro-1H-pyrido[2,3-b][1,4]oxazin-7-yl)ethynyl]-2-thienyl]methyl]-1,2,4-triazol-3-one]: the IC50 is 1.1 nM on recombinant human VAP-1, greater than 100000 nM in assay [1], 750 nM in assay [2] and 1100 nM in assay [3].

Regarding `NC/C(=C\F)Cn1ncn(Cc2ccc(-c3ccc(N4CCCC4)cc3)s2)c1=O` [Example 20, 2-[(2E)-2-(aminomethyl)-3-fluoroprop-2-en-1-yl]-4-(5-[4-(pyrrolidin-1-yl)phenyl]thiophen-2-ylmethyl)-2,4-dihydro-3H-1,2,4-triazol-3-one hydrochloride], the concentration for half-maximal inhibition (IC50) was 5 nM on recombinant human VAP-1, 6600 nM in assay [1], 730 nM in assay [2] and 2700 nM in assay [3].

With `NC/C(=C\F)Cn1ncn(Cc2ccc(-c3cnc4[nH]ccc4c3)s2)c1=O` [Example 65, 2-[(2E)-2-(aminomethyl)-3-fluoroprop-2-en-1-yl]-4-[5-(1H-pyrrolo[2,3-b]pyridin-5-yl)thiophen-2-yl]methyl-2,4-dihydro-3H-1,2,4-triazol-3-one hydrochloride], the IC50 at recombinant human VAP-1 was 0.7 nM; in assay [1] it was greater than 100000 nM; in assay [2], 3400 nM; in assay [3], 1500 nM.

With `NC/C(=C\F)Cn1ncn(Cc2ccc(-c3cc(F)c4c(c3)CC(=O)N4)s2)c1=O` [Example 71, 5-[5-[[1-[(E)-2-(aminomethyl)-3-fluoro-allyl]-5-oxo-1,2,4-triazol-4-yl]methyl]-2-thienyl]-7-fluoro-indolin-2-one hydrochloride], the half-maximal inhibitory concentration (IC50) was 0.2 nM at recombinant human VAP-1, greater than 100000 nM in assay [1], greater than 10000 nM in assay [2] and 530 nM in assay [3].

In the case of `NC/C(=C\F)Cn1ncn(Cc2ccc(-c3cccc(-c4nnc[nH]4)c3)s2)c1=O` [Example 33, 2-[(2E)-2-(aminomethyl)-3-fluoroprop-2-en-1-yl]-4-(5-[3-(4H-1,2,4-triazol-3-yl)phenyl]thiophen-2-ylmethyl)-2,4-dihydro-3H-1,2,4-triazol-3-one], the concentration for half-maximal inhibition (IC50) on recombinant human VAP-1 was 0.8 nM; in assay [1] it was greater than 100000 nM; in assay [2], 600 nM; in assay [3] it was 790 nM.

Take `NC/C(=C\F)Cn1ncn(Cc2ccc(-c3cn[nH]c3)s2)c1=O` [Example 152, 2-[(2E)-2-(aminomethyl)-3-fluoroprop-2-en-1-yl]-4-{[5-(1H-pyrazol-4-yl)thiophen-2-yl]methyl}-2,4-dihydro-3H-1,2,4-triazol-3-one]: the IC50 at recombinant human VAP-1 amounted to 4.9 nM; in assay [1] it was 13000 nM; in assay [2], 3500 nM; in assay [3] it was 4400 nM.

With `NC/C(=C\F)Cn1ncn(Cc2ccc(-c3ccc(=O)n(Cc4ccccc4)c3)s2)c1=O` [Example 191, 5-[5-({1-[(2E)-2-(aminomethyl)-3-fluoroprop-2-en-1-yl]-5-oxo-1,5-dihydro-4H-1,2,4-triazol-4-yl}methyl)thiophen-2-yl]-1-benzylpyridin-2(1H)-one], the IC50 is 1.1 nM at recombinant human VAP-1, greater than 100000 nM in assay [1], 1500 nM in assay [2] and 130 nM in assay [3].

`NC/C(=C\F)Cn1ncn(Cc2ccc(-c3ccc(-c4noc(=O)[nH]4)cc3)s2)c1=O` [Example 144, 3-{4-[5-({1-[(2E)-2-(aminomethyl)-3-fluoroprop-2-en-1-yl]-5-oxo-1,5-dihydro-4H-1,2,4-triazol-4-yl}methyl)thiophen-2-yl]phenyl}-1,2,4-oxadiazol-5(4H)-one]: the half-inhibitory concentration (IC50) at recombinant human VAP-1 is 4.6 nM; in assay [1] it was greater than 100000 nM; in assay [2], 13000 nM; in assay [3], 7400 nM.

For the compound `NC/C(=C\F)Cn1ncn(Cc2ccc(-c3cccc(N4CCNCC4)c3)s2)c1=O` [Example 23, 2-[(2E)-2-(aminomethyl)-3-fluoroprop-2-en-1-yl]-4-(5-[3-(piperazin-1-yl)phenyl]thiophen-2-ylmethyl)-2,4-dihydro-3H-1,2,4-triazol-3-one hydrochloride], the IC50 on recombinant human VAP-1 is 2.5 nM; in assay [1], greater than 100000 nM; in assay [2], 300 nM; in assay [3] it was 3200 nM.

Take `CC(C)n1cc(-c2ccc(Cn3cnn(C/C(=C/F)CN)c3=O)s2)ccc1=O` [Example 143, 5-[5-({1-[(2E)-2-(aminomethyl)-3-fluoroprop-2-en-1-yl]-5-oxo-1,5-dihydro-4H-1,2,4-triazol-4-yl}methyl)thiophen-2-yl]-1-(propan-2-yl)pyridin-2(1H)-one]: the half-inhibitory concentration (IC50) is 1.4 nM on recombinant human VAP-1, greater than 100000 nM in assay [1], 2600 nM in assay [2] and 1700 nM in assay [3].

In the case of `NC/C(=C\F)Cn1ncn(Cc2ccc(C#Cc3ccc(N4CCOCC4)nc3)s2)c1=O` [Example 129, 2-[(E)-2-(aminomethyl)-3-fluoro-allyl]-4-[[5-[2-(6-morpholino-3-pyridyl)ethynyl]-2-thienyl]methyl]-1,2,4-triazol-3-one hydrochloride], the IC50 was 0.6 nM on recombinant human VAP-1, greater than 100000 nM in assay [1], 770 nM in assay [2] and 360 nM in assay [3].
